Measured values published in PMC10460844, “Real‐Time Monitoring of Multitarget Antimicrobial Mechanisms of Peptoids Using Label‐Free Imaging with Optical Diffraction Tomography” (Advanced Science, 2023).
Square brackets hold non-standard residues; d marks the D form. Peptide text beside a SMILES is read from it. Gly(N(CH2)2(3-indolyl)) = O=C(O)CNCCc1c[nH]c2ccccc12; Nspe = C[C@H](NCC(=O)O)c1ccccc1; Nlys = NCCCCNCC(=O)O

Tests used:
[1] = Protein and DNA aggregation assay (thioflavin T); type: biochemical; details: 29 25 µM, protein 500 µg mL^−1, gDNA 50 ng mL^−1, Th T 25 µM, 37 °C 1 h, ex 450 / em 485 nm
Experimental: bacteria were pelleted at 4,000 rpm for 10 minutes at 8 °C. The supernatant was removed and the pellet was suspended in 2 mL of PBS buffer. This suspension was transferred to a 15 mL conical tube and cooled on ice. The culture was sonicated for 5 sec and cooled again for 55 sec. This cycle was repeated 15 times. The lysate was centrifuged at 4,000 rpm for 20 minutes at 8 °C. The supernatant was transferred into a fresh 2 mL Eppendorf tube and stored at -80 °C. Protein quantification was performed using TaKaRa Bradford Protein Assay Kit according to the manufacturer’s instructions.
DNA extraction and quantification
DNA extraction was performed using TaKaRa MiniBEST Bacteria Genomic DNA Extraction Kit Ver. 3.0 according to the manufacturer’s instructions.
Protein and DNA aggregation assay
The flocculation of the proteins and DNA caused by peptoids was confirmed by the change in the fluorescent intensity of thioflavin T (Th T) that detects aggregated proteins and double stranded DNA. The appropriate combination of 500 μg/mL of protein solution, 50 ng/mL of genomic DNA, 25 μM of Th T, and 25 μM of peptoid 29 were added into a black 96-well plate in triplicate and incubated at 37 °C for an hour. After incubation, the fluorescence was measured using a microplate reader (excitation wavelength = 450 nm, emission wavelength = […]
[1] […]

E. coli ATCC 25922 = assay: Bacterial respiration assay (oxygen consumption rate); type: cell-based; details: at MIC concentration, Seahorse XFe96, M9 + 10 mM glucose
Experimental: 11. Bacterial respiration assay
Figure S12. Real-time changes in oxygen consumption rate (OCR, in picomoles of molecular oxygen per minute) in response to treatment with peptoid 29, ampicillin (Amp), and chloramphenicol (Cam) in E. coli measured on a Seahorse XFe 96 extracellular flux analyzer.
OCR changes in cells treated with 29 over time (2.5 min intervals). b) Comparison of OCR responses induced by 29, Amp, and Cam treatment detected at 2.5 min intervals. The vertical line with azure color indicates the injection point of each antibiotic into the cultures. All data represent the mean ± SEM of 5-8 replicates.
Bacterial respiration assays
Cellular oxygen consumption rate (OCR) of E. coli ATCC 25922 was measured using a Seahorse XFe96 Extracellular Flux Analyzer (Agilent) as published previously.[9] Briefly, after overnight culture in LB, bacterial cells were diluted 1:200 into fresh M9 media (M6030, Sigma) and incubated for an additional 3 h at 37 °C. To conduct the measurements, bacteria were diluted to OD600 of 0.02 in M9 supplemented with 10 mM glucose. 90 μL of this cell suspension was loaded into a 96-well microplate precoated with poly-D-lysine (100 μg/mL, Sigma). […] OCR values were quantified every 2.5 min (mix and measure for 30 sec and 2 min, respectively) for an additional 48 cycles, and normalized to bacterial density […]

For `C[C@@H](c1ccccc1)N(CC(=O)N(CCCCN)CC(=O)N(CCc1c[nH]c2ccccc12)CC(=O)N(CCc1c[nH]c2ccccc12)CC(N)=O)C(=O)CN(CCCCN)C(=O)CN(CCCCN)C(=O)CN(C(=O)CN(C(=O)CN(CCCCN)C(=O)CN(C(=O)CN(C(=O)CNCCCCN)[C@@H](C)c1ccccc1)[C@@H](C)c1ccccc1)[C@@H](C)c1ccccc1)[C@@H](C)c1ccccc1` [peptoid 29] (H-[Nlys][Nspe][Nspe][Nlys][Nspe][Nspe][Nlys][Nlys][Nspe][Nlys][Gly(N(CH2)2(3-indolyl))][Gly(N(CH2)2(3-indolyl))]-NH2), the “Th T fluorescence of protein and protein/gDNA samples” value [1] was “significant increases in fluorescent emission” and the “time after which OCR converged to zero” value (E. coli ATCC 25922) was 30 min.
